Experimental data: patent US20230382924A1, “MODULATORS OF CYSTIC FIBROSIS TRANSMEMBRANE CONDUCTANCE REGULATOR” (VERTEX PHARMACEUTICALS INCORPORATED, priority 2020, published 2023)
Values joined by “and” are separate entries in the source; they are usually repeats but may differ in a detail not shown here. Equal entries are not always repeated. Where two headings read alike, the source gives them in different places.

Tests used:
CFTR [1] = biological target: T1, CFTR (Homo sapiens, UniProt P13569); experiment: Membrane Potential Dye, Enteroid Assay A; type: cell-based; conditions: for EC50: read-out: Ent. A EC50
Outline: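 Enteroid cells were loaded with methyl oxonol membrane potential dye (plus CaCCinh-A01 and Chicago Sky Blue) for 25 min at room temperature. Chloride transport was started by switching to chloride-free gluconate stimulation solution, with fluorescence read for 15 min. Activity was expressed as % of a triple-combination CFTR modulator control (3 μM, 3 μM, 300 nM acute).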

F508del = biological target: T2, F508del (Homo sapiens, UniProt P13569, DEL508-508); experiment: 3T3 assay: membrane potential optical assay for F508del correction in NIH 3T3 cells; type: cell-based; conditions: for Emax: NIH3T3, read-out: 3T3 Max Activity
T2 construct: expressed in transfected cells
Text: 1. Membrane Potential Optical Methods for Assaying F508del Modulation Properties of Compounds
The assay utilizes fluorescent voltage sensing dyes to measure changes in membrane potential using a fluorescent plate reader (e.g., FLIPR III, Molecular Devices, Inc.) as a readout for increase in functional F508del in NIH 3T3 cells. The driving force for the response is the creation of a chloride ion gradient in conjunction with channel activation by a single liquid addition step after the cells have previously been treated with compounds and subsequently loaded with a voltage sensing dye.
2. Identification of Corrector Compounds
To identify correctors of F508del, a single-addition HTS assay format was developed. This HTS assay utilizes fluorescent voltage sensing dyes to measure changes in membrane potential on the FLIPR III as a measurement for increase in gating (conductance) of F508del in F508del NIH 3T3 cells. The F508del NIH 3T3 cell cultures were incubated with the corrector compounds at a range of concentrations for 18-24 hours at 37° C., and subsequently loaded with a redistribution dye. The driving force for the response is a Cl^− ion gradient in conjunction with channel activation with forskolin in a single liquid addition step using a fluorescent plate reader such as FLIPR III.
Bath Solution #1: (in mM) NaCl 160, KCl 4.5, CaCl2) 2, MgCl2 1, HEPES 10, pH 7.4 with NaOH.
Chloride-free bath solution: Chloride salts in Bath Solution #1 (above) are substituted with gluconate salts.
NIH3T3 mouse fibroblasts stably expressing F508del are used for optical measurements of membrane potential. The cells are maintained at 37° C. in 5% CO2 and 90% humidity in Dulbecco's modified Eagle's medium supplemented with 2 mM glutamine, 10% fetal bovine serum, 1×NEAA, b-ME, 1×pen/strep, and 25 mM HEPES in 175 cm^2 culture flasks. For all optical assays, the cells were seeded at ˜20,000/well in 384-well matrigel-coated plates. For the correction assays, the cells are cultured at 37° C. with and without compounds for 16-24 hours.

CFTR [2] = biological target: T1, CFTR; experiment: Membrane Potential Dye, Enteroid Assay B; type: cell-based; conditions: for EC50: read-out: Ent. B EC50
Outline: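 Enteroid cells loaded 25 min at room temperature with 20 μM methyl oxonol plus 30 μM CaCCinh-A01 and 30 μM Chicago Sky Blue, then switched to chloride-free gluconate buffer. Chloride transport was started by chloride-free stimulation solution, with fluorescence read for 15 min.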

[3] = NIH 3T3 cells, F508del correction

T1 sequence (P13569 with tags, fused parts or gaps DEL508-508): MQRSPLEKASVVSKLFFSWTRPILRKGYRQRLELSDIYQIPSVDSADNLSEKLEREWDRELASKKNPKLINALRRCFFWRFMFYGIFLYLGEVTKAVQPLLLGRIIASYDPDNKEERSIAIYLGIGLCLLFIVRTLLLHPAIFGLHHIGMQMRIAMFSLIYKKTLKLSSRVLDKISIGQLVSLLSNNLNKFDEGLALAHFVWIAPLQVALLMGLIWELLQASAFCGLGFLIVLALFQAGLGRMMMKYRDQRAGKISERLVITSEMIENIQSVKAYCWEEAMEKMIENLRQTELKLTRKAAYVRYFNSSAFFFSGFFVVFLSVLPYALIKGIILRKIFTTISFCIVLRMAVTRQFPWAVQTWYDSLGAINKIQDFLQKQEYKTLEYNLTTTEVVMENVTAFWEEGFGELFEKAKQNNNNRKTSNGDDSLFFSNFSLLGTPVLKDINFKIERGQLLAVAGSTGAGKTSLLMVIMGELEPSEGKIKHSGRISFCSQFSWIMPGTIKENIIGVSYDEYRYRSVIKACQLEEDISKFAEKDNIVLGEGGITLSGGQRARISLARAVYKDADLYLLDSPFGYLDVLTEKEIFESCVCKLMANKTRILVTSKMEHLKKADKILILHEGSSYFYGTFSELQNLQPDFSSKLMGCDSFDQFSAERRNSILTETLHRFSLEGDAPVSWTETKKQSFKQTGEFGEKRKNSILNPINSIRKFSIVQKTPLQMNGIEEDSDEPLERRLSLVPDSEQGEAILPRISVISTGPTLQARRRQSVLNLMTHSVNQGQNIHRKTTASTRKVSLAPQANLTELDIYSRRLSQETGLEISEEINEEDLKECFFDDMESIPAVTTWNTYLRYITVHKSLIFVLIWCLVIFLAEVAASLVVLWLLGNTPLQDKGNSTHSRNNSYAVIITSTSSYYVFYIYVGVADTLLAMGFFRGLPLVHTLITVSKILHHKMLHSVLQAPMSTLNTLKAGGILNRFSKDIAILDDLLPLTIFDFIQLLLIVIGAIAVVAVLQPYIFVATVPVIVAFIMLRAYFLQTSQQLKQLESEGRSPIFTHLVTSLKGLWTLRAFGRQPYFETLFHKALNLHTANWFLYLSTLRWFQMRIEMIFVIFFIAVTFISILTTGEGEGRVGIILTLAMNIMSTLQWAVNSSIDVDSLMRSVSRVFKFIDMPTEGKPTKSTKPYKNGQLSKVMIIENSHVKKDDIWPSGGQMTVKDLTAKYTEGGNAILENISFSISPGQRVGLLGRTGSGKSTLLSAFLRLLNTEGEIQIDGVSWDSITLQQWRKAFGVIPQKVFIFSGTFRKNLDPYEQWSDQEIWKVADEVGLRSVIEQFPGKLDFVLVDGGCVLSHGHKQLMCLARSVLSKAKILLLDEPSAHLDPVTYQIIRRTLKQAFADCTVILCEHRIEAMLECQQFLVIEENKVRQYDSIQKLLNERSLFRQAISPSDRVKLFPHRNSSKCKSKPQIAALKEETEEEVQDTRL
T2 sequence (P13569 with tags, fused parts or gaps DEL508-508): as above

## Cc1cccc(C)c1-c1cc2nc(n1)NS(=O)(=O)c1cccc(c1)C(=O)NC[C@@H](c1ccc(C(C)(C)C)cc1)O2 (single isomer, unassigned) [Compound 5]
CFTR [1]; Table 8
  Ent. A Max Activity: +++ (+++ is >60%)
  EC50: < 1000 nM
F508del; Table 8
  Emax: > 60%
  EC50: < 1000 nM
CFTR [2]; Table 8
  Ent. B Max Activity: +++ (+++ is >60%)
  EC50: < 1000 nM

## Cc1cccc(C)c1-c1cc2nc(n1)NS(=O)(=O)c1cccc(c1)C(=O)N[C@H](CC1CCCCC1)CO2 [Compound 365]
CFTR [1]; Enteroid Assay A
  Ent. A Max Activity: +++ (+++ is >600%)
  EC50: < 1000 nM
F508del; [3]
  EC50: < 1000 nM
CFTR [2]; Enteroid Assay B
  EC50: < 1000 nM

## Cc1cccc(C)c1-c1cc2nc(n1)NS(=O)(=O)c1ccnc(c1)C(=O)N[C@H](CC1CCCCC1)CO2 [Compound 142]
CFTR [1]; Table 8
  Ent. A Max Activity: +++ (+++ is >60%)
  EC50: 1000 to 3000 nM
F508del; Table 8
  Emax: > 60%
  EC50: < 1000 nM
CFTR [2]; Table 8
  Ent. B Max Activity: ++ (++ is 306%)
  EC50: < 1000 nM

## Cc1cccc(C)c1-c1cc2nc(n1)NS(=O)(=O)c1cccc(c1)C(=O)NC[C@H](C)O2 [Compound 27, (10S)-6-(2,6-Dimethylphenyl)-10-methyl-2,2-dioxo-9-oxa-2λ^6-thia-3,5,12,19-tetrazatricyclo[12.3.1.14,8]nonadeca-1(18),4(19),5,7,14,16-hexaen-13-one]
From Cc1cccc(C)c1-c1cc(O[C@@H](C)CN)nc(NS(=O)(=O)c2cccc(C(=O)O)c2)n1, amide bond, 13-membered ring, HATU/DIEA, DMF, 25.0 °C, 1.0 h, 2 steps
  ring closure, yield after HPLC: 55%

## Cc1cccc(C)c1-c1cc2nc(n1)NS(=O)(=O)C1CCC1C(=O)N[C@H](CC(C)C)CO2 (stereo partly shown)
From Cc1cccc(C)c1-c1cc(OC[C@H](N)CC(C)C)nc(NS(=O)(=O)C2CCC2C(=O)O)n1, amide bond, 12-membered ring, HATU/DIEA, DMF, 42.9 mM, 25.0 °C, 0.083 h, 2 steps
  ring closure, yield after HPLC: 4% and 8%

## Cc1cccc(C)c1-c1cc2nc(n1)NS(=O)(=O)c1cccc(c1)C(=O)N[C@H](CC(C)C)C(c1ccc(C(C)(C)C)cc1)O2 (stereo partly shown)
From Cc1cccc(C)c1-c1cc(OC(c2ccc(C(C)(C)C)cc2)[C@H](N)CC(C)C)nc(NS(=O)(=O)c2cccc(C(=O)O)c2)n1, amide bond, 13-membered ring, HATU/NaOtBu, DMF/THF, 69.4 mM, 25.0 °C, 2.0 h, 2 steps
  ring closure, yield after HPLC: 21% and 15%

## Cc1cccc(C)c1-c1cc2nc(n1)NS(=O)(=O)c1cccc(c1)C(=O)NCC(c1ccc(C3CCC3)cc1)O2 (stereo not shown)
From Cc1cccc(C)c1-c1cc(OC(CN)c2ccc(C3CCC3)cc2)nc(NS(=O)(=O)c2cccc(C(=O)O)c2)n1, amide bond, 13-membered ring, HATU/DIEA, DMF, 189.0 mM, 25.0 °C, 0.5 h
  ring closure, yield after HPLC: 1%

## Cc1cccc(C)c1-c1cc2nc(n1)NS(=O)(=O)c1cccc(c1)C(=O)NC[C@H](c1ccccc1)O2 [Compound 26, (10S)-6-(2,6-Dimethylphenyl)-2,2-dioxo-10-phenyl-9-oxa-2λ^6-thia-3,5,12,19-tetrazatricyclo[12.3.1.14,8]nonadeca-1(18),4(19),5,7,14,16-hexaen-13-one]
From Cc1cccc(C)c1-c1cc(O[C@H](CN)c2ccccc2)nc(NS(=O)(=O)c2cccc(C(=O)O)c2)n1, amide bond, 13-membered ring, HATU/DIEA, DMF, 25.9 mM, 25.0 °C, 1.0 h, 2 steps
  ring closure, yield after HPLC: 38%

## Cc1cccc(C)c1-c1nc2cc(n1)OC[C@@H](CC(C)C)NC(=O)c1cccc(c1)S(=O)(=O)N2
From Cc1cccc(C)c1-c1nc(NS(=O)(=O)c2cccc(C(=O)O)c2)cc(OC[C@H](N)CC(C)C)n1, amide bond, 13-membered ring, HATU/TEA, DMF, 12.2 mM, 25.0 °C, 0.083 h
  ring closure, yield after HPLC: 32%

## Cc1cccc(F)c1-c1cc2nc(n1)NS(=O)(=O)c1cccc(c1)C(=O)N[C@H](CC(C)C)CO2 [Compound 98, (11R)-6-(2-Fluoro-6-methylphenyl)-11-(2-methylpropyl)-9-oxa-2λ^6-thia-3,5,12,19-tetraazatricyclo[12.3.1.14,8]nonadeca-1(17),4,6,8(19),14(18),15-hexaene-2,2,13-trione]
CFTR [1]; Table 8
  Ent. A Max Activity: +++ (+++ is >60%)
  EC50: < 1000 nM
F508del; Table 8
  Emax: > 60%
  EC50: < 1000 nM

## Cc1cccc(C)c1-c1cc2nc(n1)NS(=O)(=O)c1cccc(c1)C(=O)NC1CC(CN(CCC(C)(C)C)C1)O2 (stereo not shown)
From Cc1cccc(C)c1-c1cc(Cl)nc(NS(=O)(=O)c2cccc(C(=O)NC3CC(O)CN(CCC(C)(C)C)C3)c2)n1, snar bond, 14-membered ring, NaH, NMP, 5.8 mM, 70.0 °C, 2.0 h, 2 steps
  ring closure, yield after HPLC: 2%
From Cc1cccc(C)c1-c1cc(Cl)nc(NS(=O)(=O)c2cccc(C(=O)NC3CC(O)CN(CCC(C)(C)C)C3)c2)n1, snar bond, 14-membered ring, NaH, NMP, 9.2 mM, 70.0 °C, 2.0 h, 2 steps
  ring closure, yield after HPLC: 3%

## Cc1cccc(C)c1-c1cc2nc(n1)NS(=O)(=O)c1cccc(c1)C(=O)N[C@H](C1CCCCC1)CO2 [Compound 493]
CFTR [1]; Table 8
  Ent. A Max Activity: +++ (+++ is >60%)
  EC50: < 1000 nM
F508del; Table 8
  Emax: > 60%
  EC50: < 1000 nM

## Cc1cccc(C)c1-c1cc2nc(n1)NS(=O)(=O)c1cccc(c1)C(=O)NCC(c1ccc([Si](C)(C)C)cc1)O2 (stereo not shown)
From Cc1cccc(C)c1-c1cc(OC(CN)c2ccc([Si](C)(C)C)cc2)nc(NS(=O)(=O)c2cccc(C(=O)O)c2)n1, amide bond, 13-membered ring, HATU/DIEA, DMF, 55.1 mM, 25.0 °C, 0.5 h
  ring closure, yield after HPLC: 23%

## Cc1cccc(C)c1-c1cc2nc(n1)NS(=O)(=O)c1cccc(c1)C(=O)N[C@H](CC(C)C)C(C1CC1)O2 (stereo in doubt) [Compound 239]
CFTR [1]; Table 8
  Ent. A Max Activity: +++ (+++ is >60%)
  EC50: < 1000 nM
F508del; Table 8
  Emax: > 60%
  EC50: < 1000 nM

## Cc1cccc(C)c1-c1cc2nc(n1)NS(=O)(=O)c1cccc(c1)C(=O)NCC(c1ccc(C(C)C)cc1)O2 (stereo not shown) [Compound 272]
CFTR [1]; Table 8
  Ent. A Max Activity: + (+ is <30%)
  EC50: 1000 to 3000 nM
F508del; Table 8
  Emax: > 60%
  EC50: < 1000 nM

## COc1cccc(C)c1-c1cc2nc(n1)NS(=O)(=O)c1cccc(c1)C(=O)N[C@H](CC(C)C)CO2 [Compound 318]
CFTR [1]; Enteroid Assay A
  Ent. A Max Activity: +++ (+++ is >600%)
  EC50: 1000 to 3000 nM
F508del; [3]
  EC50: < 1000 nM

## Cc1cccc(C)c1-c1cc2nc(n1)NS(=O)(=O)c1cccc(c1)C(=O)N[C@H](CC(C)(C)C)CO2 [Compound 97, (11R)-6-(2,6-dimethylphenyl)-11-(2,2-dimethylpropyl)-2,2-dioxo-9-oxa-2λ^6-thia-3,5,12,19-tetrazatricyclo[12.3.1.14,8]nonadeca-1(18),4(19),5,7,14,16-hexaen-13-one]
CFTR [1]; Enteroid Assay A
  Ent. A Max Activity: +++ (+++ is >600%)
  EC50: < 1000 nM
F508del; [3]
  EC50: < 1000 nM
CFTR [2]; Enteroid Assay B
  EC50: < 1000 nM

## Cc1cccc(C)c1-c1cc2nc(n1)NS(=O)(=O)c1cccc(n1)C(=O)N[C@H](CC1CCCCC1)CO2 [Compound 411]
CFTR [1]; Table 8
  Ent. A Max Activity: +++ (+++ is >60%)
  EC50: < 1000 nM
F508del; Table 8
  Emax: > 60%
  EC50: < 1000 nM

## Cc1cccc(C)c1-c1cc2nc(n1)NS(=O)(=O)c1cccc(c1)C(=O)N[C@H](CC(C)C)[C@@H](C1CCCCC1)O2 [Compound 140]
CFTR [1]; Table 8
  Ent. A Max Activity: +++ (+++ is >60%)
  EC50: < 1000 nM
F508del; Table 8
  Emax: > 60%
  EC50: < 1000 nM

## Cc1cccc(C)c1-c1cc2nc(n1)NS(=O)(=O)c1cccc(c1)C(=O)NC(Cc1ccccc1)CO2 (stereo not shown) [Compound 206]
CFTR [1]; Enteroid Assay A
  Ent. A Max Activity: +++ (+++ is >600%)
  EC50: < 1000 nM
F508del; [3]
  EC50: < 1000 nM

## CC1=C(c2cc3nc(n2)NS(=O)(=O)c2cccc(c2)C(=O)N[C@H](CC(C)C)CO3)C(C)CCC1 (stereo partly drawn) [Compound 100, (11R)-6-(2,6-Dimethylcyclohex-1-en-1-yl)-11-(2-methylpropyl)-9-oxa-2λ^6-thia-3,5,12,19-tetraazatricyclo[12.3.1.14,8]nonadeca-1(17),4,6,8(19),14(18),15-hexaene-2,2,13-trione]
CFTR [1]; Table 8
  Ent. A Max Activity: +++ (+++ is >60%)
  EC50: 1000 to 3000 nM
F508del; Table 8
  Emax: > 60%
  EC50: < 1000 nM

## Cc1ccc2cc1S(=O)(=O)Nc1nc(cc(-c3c(C)cccc3C)n1)OC[C@@H](CC1CCCCC1)NC2=O [Compound 160]
CFTR [1]; Enteroid Assay A
  Ent. A Max Activity: ++ (++ is 30-60%)
  EC50: 1000 to 3000 nM
F508del; [3]
  EC50: < 1000 nM

## Cc1cccc(C)c1-c1cc2nc(n1)NS(=O)(=O)c1cccc(c1)C(=O)N[C@H](C(C)(C)C)CO2 [Compound 361]
CFTR [1]; Table 8
  Ent. A Max Activity: +++ (+++ is >60%)
  EC50: < 1000 nM
F508del; Table 8
  Emax: > 60%
  EC50: < 1000 nM
